Data reported in PubChem BioAssay AID248 (DTP/NCI, 2004).
Where “and” joins values, the source holds several entries; their conditions need not be identical. Equal entries are not always repeated. Toxic doses and inconclusive results are not listed. Rule as the data show it: active = T/C of 150% or more; inactive = T/C below 125%.

System: L1210 leukemia ip in BDF1 mice, survival T/C
Test: NCI In Vivo Anticancer Drug Screen. Data for tumor model L1210 Leukemia (intraperitoneal) in B6D2F1 (BDF1) mice
Settings: higher = longer survival
Summary of the method: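 Mice bearing the transplanted tumor received compound or vehicle. Survival of the treated group was divided by that of the vehicle-treated control group to give the ratio.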

[1] = endpoint: mean survival time, dose: 100.0 mg/kg/injection, schedule: Q01DX001 (ip), vehicle: carboxymethylcellulose (CMC)
[2] = endpoint: mean survival time, dose: 200.0 mg/kg/injection, schedule: Q01DX001 (ip), vehicle: carboxymethylcellulose (CMC)
[3] = endpoint: mean survival time, dose: 400.0 mg/kg/injection, schedule: Q01DX001 (ip), vehicle: carboxymethylcellulose (CMC)
[4] = endpoint: mean survival time, dose: 100.0 mg/kg/injection, schedule: Q01DX009 (ip), vehicle: saline
[5] = endpoint: mean survival time, dose: 100.0 mg/kg/injection, schedule: Q04DX003 (ip), vehicle: saline
[6] = endpoint: mean survival time, dose: 200.0 mg/kg/injection, schedule: Q01DX009 (ip), vehicle: saline
[7] = endpoint: mean survival time, dose: 200.0 mg/kg/injection, schedule: Q04DX003 (ip), vehicle: saline
[8] = endpoint: mean survival time, dose: 50.0 mg/kg/injection, schedule: Q04DX003 (ip), vehicle: saline with Tween-80
[9] = endpoint: mean survival time, dose: 100.0 mg/kg/injection, schedule: Q01DX009 (ip), vehicle: saline with Tween-80
[10] = endpoint: mean survival time, dose: 100.0 mg/kg/injection, schedule: Q04DX003 (ip), vehicle: saline with Tween-80
[11] = endpoint: mean survival time, dose: 200.0 mg/kg/injection, schedule: Q01DX009 (ip), vehicle: saline with Tween-80
[12] = endpoint: mean survival time, dose: 200.0 mg/kg/injection, schedule: Q04DX003 (ip), vehicle: saline with Tween-80
[13] = endpoint: mean survival time, dose: 100.0 mg/kg/injection, schedule: Q01DX009 (ip), vehicle: other
[14] = endpoint: mean survival time, dose: 100.0 mg/kg/injection, schedule: Q04DX003 (ip), vehicle: Klucel (hydroxypropylcellulose) (HPC)
[15] = endpoint: mean survival time, dose: 200.0 mg/kg/injection, schedule: Q01DX009 (ip), vehicle: other
[16] = endpoint: mean survival time, dose: 200.0 mg/kg/injection, schedule: Q04DX003 (ip), vehicle: Klucel (hydroxypropylcellulose) (HPC)
[17] = endpoint: mean survival time, dose: 400.0 mg/kg/injection, schedule: Q01DX009 (ip), vehicle: other
[18] = endpoint: mean survival time, dose: 400.0 mg/kg/injection, schedule: Q04DX003 (ip), vehicle: Klucel (hydroxypropylcellulose) (HPC)
[19] = endpoint: mean survival time, dose: 50.0 mg/kg/injection, schedule: Q01DX001 (ip), vehicle: saline
[20] = endpoint: mean survival time, dose: 400.0 mg/kg/injection, schedule: Q04DX003 (ip), vehicle: saline
[21] = endpoint: mean survival time, dose: 100.0 mg/kg/injection, schedule: Q01DX001 (ip), vehicle: saline
[22] = endpoint: mean survival time, dose: 200.0 mg/kg/injection, schedule: Q01DX001 (ip), vehicle: saline
[23] = endpoint: mean survival time, dose: 400.0 mg/kg/injection, schedule: Q01DX001 (ip), vehicle: saline
[24] = endpoint: mean survival time, dose: 400.0 mg/kg/injection, schedule: Q01DX009 (ip), vehicle: saline with Tween-80
[25] = endpoint: mean survival time, dose: 100.0 mg/kg/injection, schedule: Q01DX001 (ip), vehicle: saline with Tween-80
[26] = endpoint: mean survival time, dose: 200.0 mg/kg/injection, schedule: Q01DX001 (ip), vehicle: saline with Tween-80

Measured: T/C

CCCCCC[Se][Se]CCCCCC
inactive: endpoint: mean survival time, dose: 6.25 mg/kg/injection, schedule: Q01DX009 (ip), vehicle: Klucel (hydroxypropylcellulose) (HPC) 96 % of control | endpoint: mean survival time, dose: 12.5 mg/kg/injection, schedule: Q01DX009 (ip), vehicle: Klucel (hydroxypropylcellulose) (HPC) 96 % of control | endpoint: mean survival time, dose: 25.0 mg/kg/injection, schedule: Q01DX009 (ip), vehicle: Klucel (hydroxypropylcellulose) (HPC) 91 % of control | endpoint: mean survival time, dose: 25.0 mg/kg/injection, schedule: Q04DX003 (ip), vehicle: Klucel (hydroxypropylcellulose) (HPC) 90 % of control | endpoint: mean survival time, dose: 50.0 mg/kg/injection, schedule: Q04DX003 (ip), vehicle: Klucel (hydroxypropylcellulose) (HPC) 103 % of control and 107 % of control

NNC(=O)CSSCC(=O)NN
inactive: endpoint: mean survival time, dose: 100.0 mg/kg/injection, schedule: Q04DX002 (ip), vehicle: Klucel (hydroxypropylcellulose) (HPC) 101 % of control

NC(=O)NC(=O)C(Cl)c1ccccc1 (stereo unspecified)
inactive: endpoint: mean survival time, dose: 50.0 mg/kg/injection, schedule: Q01DX001 (ip), vehicle: carboxymethylcellulose (CMC) 103 % of control | [1] 97 % of control | [2] 103 % of control | [3] 101 % of control

NC(CCCC(N)C(=O)CCl)C(=O)O (stereo unspecified)
inactive: endpoint: mean survival time, dose: 25.0 mg/kg/injection, schedule: Q04DX002 (ip), vehicle: saline 114 % of control | endpoint: mean survival time, dose: 50.0 mg/kg/injection, schedule: Q04DX002 (ip), vehicle: saline 104 % of control | endpoint: mean survival time, dose: 100.0 mg/kg/injection, schedule: Q04DX002 (ip), vehicle: saline 107 % of control

CCN(CC)C(C)COC(=O)c1cc(=O)n(C)c2ccccc12 (stereo unspecified)
inactive: endpoint: mean survival time, dose: 50.0 mg/kg/injection, schedule: Q01DX009 (ip), vehicle: saline 101 % of control | [4] 98 % of control | [5] 95 % of control | [6] 89 % of control | [7] 97 % of control

Cc1ccc(O)c(CCCC(=O)O)c1
inactive: endpoint: mean survival time, dose: 100.0 mg/kg/injection, schedule: Q01DX009 (ip), vehicle: alcohol 100 % of control | endpoint: mean survival time, dose: 200.0 mg/kg/injection, schedule: Q01DX009 (ip), vehicle: alcohol 101 % of control | endpoint: mean survival time, dose: 400.0 mg/kg/injection, schedule: Q01DX009 (ip), vehicle: alcohol 98 % of control

Cc1cc(NC(=O)c2ccccc2)c(Cl)cc1N
inactive: endpoint: mean survival time, dose: 50.0 mg/kg/injection, schedule: Q01DX009 (ip), vehicle: saline with Tween-80 105 % of control | [8] 94 % of control | [9] 98 % of control | [10] 98 % of control | [11] 93 % of control | [12] 93 % of control

CN(C)c1ccc(CC2Cc3ccccc3C2=O)cc1 (stereo unspecified)
inactive: [13] 96 % of control | [14] 117 % of control | [15] 89 % of control | [16] 103 % of control | [17] 91 % of control | [18] 98 % of control

O=C(CN1CCOCC1)Nc1ccc(-c2ccc(NC(=O)CN3CCOCC3)cc2)cc1
inactive: [1] 92 % of control | [2] 97 % of control | [3] 92 % of control

O=c1[nH]c2ccncc2c(=O)n1O
inactive: endpoint: mean survival time, dose: 100.0 mg/kg/injection, schedule: Q01DX009 (ip), vehicle: Klucel (hydroxypropylcellulose) (HPC) 94 % of control | endpoint: mean survival time, dose: 200.0 mg/kg/injection, schedule: Q01DX009 (ip), vehicle: Klucel (hydroxypropylcellulose) (HPC) 104 % of control | endpoint: mean survival time, dose: 400.0 mg/kg/injection, schedule: Q01DX009 (ip), vehicle: Klucel (hydroxypropylcellulose) (HPC) 94 % of control

Brc1ccc2[nH]cc(/C=N/Nc3nnc(N/N=C/c4c[nH]c5ccc(Br)cc45)c4ccccc34)c2c1
inactive: [19] 101 % of control

CCOC(=O)CSC(=S)SCC(=O)OCC
inactive: [5] 104 % of control | [7] 105 % of control | [20] 107 % of control

O=C(OC1CC2CCC1CC2)c1ccc([N+](=O)[O-])cc1 (stereo unspecified)
inactive: [21] 97 % of control | [22] 95 % of control | [23] 92 % of control

OC(CC1(O)C(F)(F)C(F)(F)C1(F)F)c1ccccc1 (stereo unspecified)
inactive: [9] 97 % of control | [24] 100 % of control

NS(=O)(=O)c1ccc(NC(=S)NC(=O)c2cccc([N+](=O)[O-])c2)cc1
inactive: [8] 97 % of control | [25] 96 % of control | [9] 96 % of control and 101 % of control | endpoint: mean survival time, dose: 100.0 mg/kg/injection, schedule: Q04DX002 (ip), vehicle: saline with Tween-80 90 % of control | [10] 97 % of control and 105 % of control | [26] 101 % of control | [11] 103 % of control and 89 % of control | endpoint: mean survival time, dose: 200.0 mg/kg/injection, schedule: Q04DX002 (ip), vehicle: saline with Tween-80 104 % of control | [12] 94 % of control | endpoint: mean survival time, dose: 400.0 mg/kg/injection, schedule: Q01DX001 (ip), vehicle: saline with Tween-80 86 % of control | [24] 96 % of control and 89 % of control | endpoint: mean survival time, dose: 400.0 mg/kg/injection, schedule: Q04DX002 (ip), vehicle: saline with Tween-80 87 % of control | endpoint: mean survival time, dose: 400.0 mg/kg/injection, schedule: Q04DX003 (ip), vehicle: saline with Tween-80 89 % of control

O=C(O)C1=CC2CC1C1CC(C(=O)O)CC21 (stereo unspecified)
inactive: endpoint: mean survival time, dose: 100.0 mg/kg/injection, schedule: Q01DX001 (ip), vehicle: Klucel (hydroxypropylcellulose) (HPC) 105 % of control | endpoint: mean survival time, dose: 200.0 mg/kg/injection, schedule: Q01DX001 (ip), vehicle: Klucel (hydroxypropylcellulose) (HPC) 91 % of control | endpoint: mean survival time, dose: 400.0 mg/kg/injection, schedule: Q01DX001 (ip), vehicle: Klucel (hydroxypropylcellulose) (HPC) 103 % of control

[O-][n+]1c2ccccc2nc2ccccc21
inactive: [14] 98 % of control | [16] 98 % of control | [18] 89 % of control

OCC(O)CCBr (stereo unspecified)
inactive: [21] 100 % of control | [4] 107 % of control | [22] 105 % of control | [6] 115 % of control | [23] 108 % of control

CCN(CC)C(=S)S
inactive: endpoint: mean survival time, dose: 50.0 mg/kg/injection, schedule: Q04DX003 (ip), vehicle: saline 101 % of control | [1] 106 % of control | [13] 107 % of control | [5] 103 % of control | endpoint: mean survival time, dose: 125.0 mg/kg/injection, schedule: Q01DX010 (ip), vehicle: saline 103 % of control and 90 % of control | [2] 96 % of control | [15] 103 % of control | [7] 106 % of control | endpoint: mean survival time, dose: 250.0 mg/kg/injection, schedule: Q01DX010 (ip), vehicle: saline 97 % of control and 87 % of control | [3] 102 % of control | [17] 102 % of control | [20] 103 % of control | endpoint: mean survival time, dose: 500.0 mg/kg/injection, schedule: Q01DX010 (ip), vehicle: saline 100 % of control and 91 % of control | endpoint: mean survival time, dose: 1000.0 mg/kg/injection, schedule: Q01DX010 (ip), vehicle: saline 114 % of control | endpoint: median survival time, dose: 500.0 mg/kg/injection, schedule: Q01DX001 (ip), vehicle: saline 103 % of control | endpoint: median survival time, dose: 1000.0 mg/kg/injection, schedule: Q01DX001 (ip), vehicle: saline 108 % of control

CC1(N(O)C(=O)NC2CCCCC2)CCCCC1
inactive: [25] 101 % of control | [26] 97 % of control

ClC1=C(Cl)C2(Cl)C(Cl)CC1(Cl)C2(Cl)Cl (stereo unspecified)
inactive: [21] 97 % of control | [5] 110 % of control | [22] 90 % of control | [7] 96 % of control | [23] 97 % of control

Cn1c(=O)c2c(ncn2CCSc2nnnc3ccccc23)n(C)c1=O
inactive: [5] 98 % of control | [7] 93 % of control | [20] 94 % of control

ON(C(=Nc1ccccc1)c1ccccc1)c1ccccc1
inactive: [19] 102 % of control | [21] 101 % of control

CCOc1ccccc1/C=N/N=C(N)N
inactive: endpoint: mean survival time, dose: 63.0 mg/kg/injection, schedule: Q01DX Z (ip), vehicle: carboxymethylcellulose (CMC) 95 % of control | endpoint: mean survival time, dose: 125.0 mg/kg/injection, schedule: Q01DX Z (ip), vehicle: carboxymethylcellulose (CMC) 95 % of control

CCOC(Nc1ccc(Cl)c(Cl)c1)C(=O)c1ccccc1 (stereo unspecified)
inactive: [21] 105 % of control | [22] 105 % of control | [23] 96 % of control

CCOC(=O)CCN(Cc1ccccc1)C(=S)Nc1ccccc1
inactive: endpoint: mean survival time, dose: 25.0 mg/kg/injection, schedule: Q01DX Z (ip), vehicle: methylcellulose (MC) 98 % of control
